Test results taken from patent US20200181192A1, “DISULFIDE BIOCONJUGATION” (The Regents of the University of California, priority 2017, published 2020).

How the values were obtained:
[1] = determined by Baran and coworkers; no further studies conducted; cited from earlier work
[2] = Solubility in polar solvents; format: physicochemical; details: for solubility in polar solvents: acetonitrile, methanol; for solubility in methanol:water mixture: 9:1 methanol:water
Protocol: Previous bicyclobutane molecules (1a, 1b) were determined by Baran and coworkers to be bench stable so no further studies were conducted on their stability.

[3] = in diethyl ether; diphenyl disulfide, benzyl amine, diphenyl acetic acid, 1-butanethiol; GC-MS
Source text: To determine the stability and selectivity of bicyclobutane molecules endo-3, exo-3 were solubilized in diethyl ether and tested with a variety of functional groups (diphenyl disulfide, benzyl amine, diphenyl acetic acid, and 1-butanethiol) then analyzed on a GC-MS to confirm the continued presence of starting materials.

[4] = in solvent left on the bench, over 2 days

| SMILES | bench stability [1] | solubility in polar solvents [2] | reaction with functional groups (continued presence of starting materials) [3] | stability in polar solvents by 1H-NMR [4] | solubility in methanol:water mixture [2] |
| --- | --- | --- | --- | --- | --- |
| O=S(=O)(c1ccccc1)C12CC1C2 (stereo not shown) [1a, 1-(phenylsulfonyl)bicyclo[1.1.0]butane] | bench stable | not be completely soluble |  |  |  |
| Cc1ccc(S(=O)(=O)C23CC2C3)cc1 (stereo not shown) [1b, 1-tosylbicyclo[1.1.0]butane] | bench stable | not be completely soluble |  |  |  |
| OC[C@H]1[C@H]2C[C@@H]12 [endo-3, Endo-Bicyclo[1.1.-]butane-2-methanol] |  |  | apparent only in the case with diphenyl acetic acid and 1-butane thiol | no change | soluble |
| OC[C@@H]1[C@H]2C[C@@H]12 [exo-3, Exo-Bicyclo[1.1.-]butane-2-methanol] |  |  | apparent only in the case with diphenyl acetic acid and 1-butane thiol | no change | soluble |
